# Data published in EP3685668B1, “COMPOSITION COMPRISING ACIBENZOLAR-S-METHYL AS EFFECTIVE INGREDIENT FOR CONTROLLING BURSAPHELENCHUS XYLOPHILUS DISEASE AND METHOD FOR CONTROLLING BURSAPHELENCHUS XYLOPHILUS USING SAME” (Industry Foundation of Chonnam National University, priority 2017, dated 2019).
# Assays:
# Experiment in all cases: qRT-PCR expression of induced resistance gene in pine tree callus
# Type in all cases: cell-based
# [1] = system: PR_4 family; conditions: concentration series
# Description: (§1) For in vitro analysis of induced resistance, the expression of PR genes and other plant defense-related genes was determined, which are evolved in various defense mechanisms including induced resistance. The primers of sixteen induced resistance-related genes of pine tree used in this invention were listed in the below and elongation factor_1 alpha were used as a reference gene. [Table 4] The primer list of defense resistance-related genes
# (§2) After the treatment with 200 µg / mℓ of candidates of the selected induced resistance material, expression of the induced resistance-related gene in pine callus was determined by qRT-PCR using the primer pairs of defense resistance-related genes in Table 4. As a candidate group of an induced resistance material in pine tree, acibenzolar-S-methyl (ASM), TDL (Tiadinil), ITL (Isotianil), PBZ (Probenzole), AZO (Azoxystrobin), VMA (Validamycin A), MeJA (Methyl jasmonate), BABA (DL-3-aminobutyric acid), 2,3-BDO (2,3-Butanediol), GABA (r-Aminobutyric acid), glucan (Glucan), ER (Ergosterol), and AZA (Azelaic acid) were used. For the in vitro analysis of the expression of induced resistance gene in pine callus, the selected induced resistance materials were applied with 500 µℓ of LM liquid medium on a surface of pine tree callus (100 mg) in 12-well microplate to give final concentration of 200 µg/mℓ. Then, the callus surface was sufficiently reacted for 24 hours with the candidate of pine tree induced resistance material by shaking at 50 rpm in a 25 °C shaking incubator under dark condition. RNAs were extracted from the callus after completion of the reaction with an induced resistance material, followed by synthesis of cDNAs. Then, by carrying out qRT-PCR, the expression of induced resistance genes was determined. [Table 5] Expression of induced resistance gene in pine tree callus by TDL, PBZ, ASM, ITL, AZO, VMA, glucan, and AZA
# (§3) Based on the results of assay using young plants and gene expression by selected induce resistance materials, it seemed that acibenzolar-S-methyl had the most excellent effect. Thus, the following tests were carried out using acibenzolar-S-methyl only. Expression of the induced resistance genes at different culture time after the chemical treatment was examined. For the in vitro assay, LM medium containing pine tree callus was treated with acibenzolar-S-methyl at concentration of 200 µg / mℓ, followed by reaction for 1 day, 7 days, or 14 days in a 25°C shaking incubator under dark condition. RNAs were extracted from the callus after the reaction followed by synthesis of cDNAs. Then, by carrying out qRT-PCR, the expression of the induced resistance genes was determined. Depending on reaction time after the treatment, i.e., after 1 day, 7 days, or 14 days, the expression of the obtained induced resistance genes was examined. As a result of the in vitro callus assay depending on reaction time after the treatment with acibenzolar-S-methyl, the expression of the induced resistance-related genes is the highest at 1 day after the treatment with acibenzolar-S-methyl and gradually diminished over time, as it is shown in Table 7. In this regard, it is contemplated that the expression of genes acquired by acibenzolar-S-methyl is not maintained in highly expressed state until the pathogen invasion and just memorized with at minimum level so that the energy consumption by plant can be efficiently managed. [Table 7] Expression of induced resistance gene in pine tree callus by acibenzolar-S-methyl depending on reaction time
# (§4) To have an in vitro assay according to different methods of treatment with acibenzolar-S-methyl, two separate treatment methods, i.e., surface treatment (spraying treatment) of pine tree callus and direct application of the induced resistance material to an LM medium containing pine tree callus, were performed. […]
# [2] = system: PR_3 family class 4; conditions: for Expression of induced resistance gene, PR_3 family class 4: 24 hours
# Description: as §1, §2, §3, §4
# [3] = system: Hydroxyproline; conditions: for Expression of induced resistance gene, Hydroxyproline: 24 hours
# Description: as §1, §2, §3, §4
# [4] = system: Antipeptide; conditions: 200 µg/mℓ; for Expression of induced resistance gene, Antipeptide: 24 hours
# Description: as §1, §2, §3, §4
# [5] = system: Metallothionein; conditions: for Expression of induced resistance gene, Metallothionein: 24 hours
# Description: as §1, §2, §3, §4
# [6] = system: Heat shock 70; conditions: for Expression of induced resistance gene, Heat shock 70: 24 hours
# Description: as §1, §2, §3, §4
# [7] = 200 µg/mℓ, Direct supplying as a medium component
# [8] = concentration series, 200 µg/mℓ
structure (smiles),measurement,setting,value
"CSC(=O)c1cccc2nnsc12 [ASM, acibenzolar-S-methyl]","Gene expression level, PR_4 family",[1]; 20 µg/mℓ,2.056
same,"Gene expression level, PR_4 family",[1]; 200 µg/mℓ,1.24
same,"Expression of induced resistance gene, PR_3 family class 4",[2]; 200 µg/mℓ,3.86
same,"Expression of induced resistance gene, PR_3 family class 4",[2]; [7],11.96
same,"Expression of induced resistance gene, PR_3 family class 4","[2]; 200 µg/mℓ, Spraying",3.86
same,"Gene expression level, PR_3 family class 4","[2]; 200 µg/mℓ, After 1 day",11.96
same,"Gene expression level, PR_3 family class 4","[2]; 200 µg/mℓ, After 7 days",7.67
same,"Gene expression level, PR_3 family class 4","[2]; 200 µg/mℓ, After 14 days",0.86
same,"Gene expression level, PR_3 family class 4","[2]; concentration series, 2 µg/mℓ",32.22
same,"Gene expression level, PR_3 family class 4","[2]; concentration series, 20 µg/mℓ",42.52
same,"Gene expression level, PR_3 family class 4",[2]; [8],24.93
same,"Expression of induced resistance gene, Hydroxyproline",[3]; 200 µg/mℓ,1.79
same,"Expression of induced resistance gene, Hydroxyproline",[3]; [7],7.89
same,"Expression of induced resistance gene, Hydroxyproline","[3]; 200 µg/mℓ, Spraying",1.79
same,"Gene expression level, Hydroxyproline","[3]; 200 µg/mℓ, After 1 day",10.06
same,"Gene expression level, Hydroxyproline","[3]; 200 µg/mℓ, After 7 days",1.2
same,"Gene expression level, Hydroxyproline","[3]; 200 µg/mℓ, After 14 days",0.32
same,"Gene expression level, Hydroxyproline","[3]; concentration series, 2 µg/mℓ",3.138
same,"Gene expression level, Hydroxyproline","[3]; concentration series, 20 µg/mℓ",4.438
same,"Gene expression level, Hydroxyproline",[3]; [8],4.627
same,"Expression of induced resistance gene, Antipeptide",[4],1.83
same,"Expression of induced resistance gene, Antipeptide",[4]; Direct supplying as a medium component,7.21
same,"Expression of induced resistance gene, Antipeptide",[4]; Spraying,1.83
same,"Gene expression level, Antipeptide",[4]; After 1 day,10.63
same,"Gene expression level, Antipeptide",[4]; After 7 days,1.28
same,"Gene expression level, Antipeptide",[4]; After 14 days,0.58
same,"Gene expression level, Antipeptide",[4]; concentration series,5.352
same,"Expression of induced resistance gene, Metallothionein",[5]; 200 µg/mℓ,0.11
same,"Expression of induced resistance gene, Metallothionein",[5]; [7],29.86
same,"Expression of induced resistance gene, Metallothionein","[5]; 200 µg/mℓ, Spraying",0.11
same,"Gene expression level, Metallothionein","[5]; 200 µg/mℓ, After 1 day",7.89
same,"Gene expression level, Metallothionein","[5]; 200 µg/mℓ, After 7 days",0.41
same,"Gene expression level, Metallothionein","[5]; 200 µg/mℓ, After 14 days",0.29
same,"Gene expression level, Metallothionein","[5]; concentration series, 2 µg/mℓ",0.5946
same,"Gene expression level, Metallothionein","[5]; concentration series, 20 µg/mℓ",0.79
same,"Gene expression level, Metallothionein",[5]; [8],0.9266
same,"Expression of induced resistance gene, Heat shock 70",[6]; 200 µg/mℓ,1.75
same,"Expression of induced resistance gene, Heat shock 70",[6]; [7],10.06
same,"Expression of induced resistance gene, Heat shock 70","[6]; 200 µg/mℓ, Spraying",1.75
same,"Gene expression level, Heat shock 70","[6]; 200 µg/mℓ, After 1 day",2.27
same,"Gene expression level, Heat shock 70","[6]; 200 µg/mℓ, After 7 days",0.97
same,"Gene expression level, Heat shock 70","[6]; 200 µg/mℓ, After 14 days",0.77
same,"Gene expression level, Heat shock 70","[6]; concentration series, 20 µg/mℓ",23.26
same,"Gene expression level, Heat shock 70",[6]; [8],53.45
